The assay has as its target T1, human Npt2a (Homo sapiens, UniProt Q06495).
T1 construct: expressed in transfected cells
T1 sequence (Q06495 1-639): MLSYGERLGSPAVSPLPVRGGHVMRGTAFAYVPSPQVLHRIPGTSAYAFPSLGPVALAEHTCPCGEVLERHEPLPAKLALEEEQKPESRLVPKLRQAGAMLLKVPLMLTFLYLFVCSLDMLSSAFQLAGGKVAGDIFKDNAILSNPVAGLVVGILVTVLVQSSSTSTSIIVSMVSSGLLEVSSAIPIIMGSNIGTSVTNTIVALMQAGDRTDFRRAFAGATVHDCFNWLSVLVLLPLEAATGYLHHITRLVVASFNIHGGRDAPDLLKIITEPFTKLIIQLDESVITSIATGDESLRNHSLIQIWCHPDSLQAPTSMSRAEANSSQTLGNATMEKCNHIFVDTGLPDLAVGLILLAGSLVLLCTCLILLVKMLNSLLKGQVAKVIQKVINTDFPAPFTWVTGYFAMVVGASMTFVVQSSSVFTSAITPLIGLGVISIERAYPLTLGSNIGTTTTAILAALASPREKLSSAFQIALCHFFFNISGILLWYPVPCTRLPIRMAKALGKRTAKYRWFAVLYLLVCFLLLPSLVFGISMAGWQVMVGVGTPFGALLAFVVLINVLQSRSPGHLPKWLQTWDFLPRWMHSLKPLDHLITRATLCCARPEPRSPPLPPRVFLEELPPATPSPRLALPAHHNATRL
Description: Npt2a activity cell based assay, membrane potential dye, CHO T-REx hNpt2a cells. The conditions noted are these: doxycycline-induced, depolarization by sodium phosphate influx, average or median values if tested more than once. The procedure, abridged:
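Doxycycline-induced (0.5 μg/mL, 24 h) CHO T-REx cells were loaded with membrane potential dye in sodium-free NHE buffer (pH 7.4) and exposed to compound (50 μM–1 nM, 5 min, room temperature).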
By IC50 is commonly meant the concentration that gives 50% inhibition. Low values mean greater potency, high ones weaker potency. The molecule `Cc1cc(C(F)F)n(-c2cc(Nc3c(C)c(-c4ccc(F)cn4)nn3CC3CC3)ncn2)n1` [Example 422, N-[1-(cyclopropylmethyl)-3-(5-fluoropyridin-2-yl)-4-methyl-1H-pyrazol-5-yl]-6-[5-(difluoromethyl)-3-methyl-1H-pyrazol-1-yl]pyrimidin-4-amine] registered an IC50 of 0.24 µM. Regarding `Cc1c(-c2ccc(F)cc2)nn(CC2CC2)c1Nc1cc(-n2nc3c(c2C)C(=O)CC3)ncn1` [Example 395, 2-(6-{[1-(cyclopropylmethyl)-3-(4-fluorophenyl)-4-methyl-1H-pyrazol-5-yl]amino}pyrimidin-4-yl)-3-methyl-5,6-dihydrocyclopenta[c]pyrazol-4(2H)-one], half-maximal inhibition (IC50) was put at 0.019 µM.

The molecule `COc1c(Nc2cc(-n3nc(C)cc3C(F)F)ncn2)nn(C)c1-c1ccc(C#N)cc1` [Example 410, 4-[3-({6-[5-(difluoromethyl)-3-methyl-1H-pyrazol-1-yl]pyrimidin-4-yl}amino)-4-methoxy-1-methyl-1H-pyrazol-5-yl]benzonitrile] had an IC50 of 0.002 µM. For `Cc1nn(-c2cc(Nc3c(C)c(-c4ccncc4)nn3CC3CC3)ncn2)c(C)c1C(F)(F)F` [Example 384, N-[1-(cyclopropylmethyl)-4-methyl-3-(pyridin-4-yl)-1H-pyrazol-5-yl]-6-[3,5-dimethyl-4-(trifluoromethyl)-1H-pyrazol-1-yl]pyrimidin-4-amine], the IC50 stood at 0.03 µM.

`COc1c(Nc2cc(-n3nc(C)cc3C)ncn2)nn(C)c1-c1ccc(C#N)cc1` [Example 443, 4-(3-{[6-(3,5-dimethyl-1H-pyrazol-1-yl)pyrimidin-4-yl]amino}-4-methoxy-1-methyl-1H-pyrazol-5-yl)benzonitrile] came in with an IC50 of 0.011 µM. In turn, `CCOC(=O)c1c(C)nn(-c2cc(Nc3c(CC)c(-c4ccc(C#N)cc4)nn3CC3CC3)ncn2)c1C` [Example 156, ethyl 1-(6-{[3-(4-cyanophenyl)-1-(cyclopropylmethyl)-4-ethyl-1H-pyrazol-5-yl]amino}pyrimidin-4-yl)-3,5-dimethyl-1H-pyrazole-4-carboxylate] returned a half-inhibitory concentration (IC50) of 0.002 µM. `Cc1nn(-c2cc(Nc3n[nH]c(-c4ccc(C#N)cc4)c3C)ncn2)c(C)c1Cl` [Example 137, 4-(3-{[6-(4-chloro-3,5-dimethyl-1H-pyrazol-1-yl)pyrimidin-4-yl]amino}-4-methyl-1H-pyrazol-5-yl)benzonitrile] registered an IC50 of 0.071 µM.

`Cc1nn(-c2cc(Nc3c(C)c(-c4ccc(OC(F)F)cc4)nn3CC3CC3)ncn2)c(C)c1C(F)(F)F` [Example 478, N-{1-(cyclopropylmethyl)-3-[4-(difluoromethoxy)phenyl]-4-methyl-1H-pyrazol-5-yl}-6-[3,5-dimethyl-4-(trifluoromethyl)-1H-pyrazol-1-yl]pyrimidin-4-amine]: it took 0.045 µM to reach half-maximal inhibition (IC50).

Consider `CCc1c(Nc2cc(-n3nc(C)cc3C)ncn2)nn(CC2CC2)c1-c1ccc(F)cc1` [Example 143, N-[1-(cyclopropylmethyl)-4-ethyl-5-(4-fluorophenyl)-1H-pyrazol-3-yl]-6-(3,5-dimethyl-1H-pyrazol-1-yl)pyrimidin-4-amine], for which the IC50 stood at 0.415 µM. In turn, `Cc1cc(C(F)F)n(-c2cc(Nc3c(C4CC4)c(-c4ccc(F)cc4)nn3C)ncn2)n1` [Example 96, N-[4-cyclopropyl-3-(4-fluorophenyl)-1-methyl-1H-pyrazol-5-yl]-6-[5-(difluoromethyl)-3-methyl-1H-pyrazol-1-yl]pyrimidin-4-amine] gave an IC50 of 0.11 µM. For `Cc1nn(-c2cc(Nc3c(C)c(-c4ccc(F)cn4)nn3CC3CC3)ncn2)c(C)c1Cl` [Example 439, 6-(4-chloro-3,5-dimethyl-1H-pyrazol-1-yl)-N-[1-(cyclopropylmethyl)-3-(5-fluoropyridin-2-yl)-4-methyl-1H-pyrazol-5-yl]pyrimidin-4-amine] the value was 0.039 µM; for `COCCn1nc(-c2ccc(C#N)cc2)c(C)c1Nc1cc(-n2nc(C)cc2C)ncn1` [Example 555, 4-[5-{[6-(3,5-dimethyl-1H-pyrazol-1-yl)pyrimidin-4-yl]amino}-1-(2-methoxyethyl)-4-methyl-1H-pyrazol-3-yl]benzonitrile], 0.0016 µM. The molecule `CCOC(=O)c1c(Cl)c(C)nn1-c1cc(Nc2nn(C)c(-c3ccc(F)cc3)c2C)ncn1` [Example 259, ethyl 4-chloro-1-(6-{[5-(4-fluorophenyl)-1,4-dimethyl-1H-pyrazol-3-yl]amino}pyrimidin-4-yl)-3-methyl-1H-pyrazole-5-carboxylate] registered an IC50 of 0.05 µM.

As to `Cc1c(-c2ccc(C#N)cc2)nn(CC2CC2)c1Nc1cc(-n2cccn2)ncn1` [Example 246, 4-[1-(cyclopropylmethyl)-4-methyl-5-{[6-(1H-pyrazol-1-yl)pyrimidin-4-yl]amino}-1H-pyrazol-3-yl]benzonitrile], the IC50 stood at 0.34 µM.

`Cc1cc(C)n(-c2cc(Nc3cn(-c4ccc(F)cc4)nc3C)ncn2)n1` [Example 77, 6-(3,5-dimethyl-1H-pyrazol-1-yl)-N-[1-(4-fluorophenyl)-3-methyl-1H-pyrazol-4-yl]pyrimidin-4-amine] gave an IC50 of 2.23 µM. Compared with the last molecule, the IC50 is about 6.6-fold higher. Consider `Cc1nn(-c2cc(Nc3c(Cl)c(-c4ccc(F)cc4)nn3C)ncn2)c(C)c1Cl` [Example 88, 6-(4-chloro-3,5-dimethyl-1H-pyrazol-1-yl)-N-[4-chloro-3-(4-fluorophenyl)-1-methyl-1H-pyrazol-5-yl]pyrimidin-4-amine], for which it took 0.0285 µM to reach half-maximal inhibition (IC50). On to `CCOC(=O)c1c(C)nn(-c2cc(Nc3c(C)c(-c4ccc(F)cc4F)nn3CC3CC3)ncn2)c1C` [Example 364, ethyl 1-(6-{[1-(cyclopropylmethyl)-3-(2,4-difluorophenyl)-4-methyl-1H-pyrazol-5-yl]amino}pyrimidin-4-yl)-3,5-dimethyl-1H-pyrazole-4-carboxylate], for which inhibition was half-maximal at 0.005 µM (IC50). Against the preceding molecule, the IC50 is about 5.7-fold lower. Regarding `CCc1c(Nc2cc(-n3nc(C)cc3C(C)(C)O)ncn2)nn(C)c1-c1ccc(F)cc1` [Example 125, 2-[1-(6-{[4-ethyl-5-(4-fluorophenyl)-1-methyl-1H-pyrazol-3-yl]amino}pyrimidin-4-yl)-3-methyl-1H-pyrazol-5-yl]propan-2-ol], the IC50 was determined as 0.0203 µM. As for `Cc1nn(-c2cc(Nc3nn(C)c(-c4ccc(F)cc4)c3Cl)ncn2)c2ccccc12` [Example 110, N-[4-chloro-5-(4-fluorophenyl)-1-methyl-1H-pyrazol-3-yl]-6-(3-methyl-1H-indazol-1-yl)pyrimidin-4-amine], the IC50 was 0.022 µM. Molecule `COc1c(-c2ccc(C#N)cc2)nn(CC2CC2)c1Nc1cc(-n2nc(C)c(C(C)OC)c2C)ncn1` (single isomer, unassigned) [Example 334, 4-{1-(cyclopropylmethyl)-4-methoxy-5-[(6-{4-[1-methoxyethyl]-3,5-dimethyl-1H-pyrazol-1-yl}pyrimidin-4-yl)amino]-1H-pyrazol-3-yl}benzonitrile] came in with a half-maximal inhibitory concentration (IC50) of 0.041 µM.

In turn, `COCCn1nc(-c2ccc(C(F)F)cc2)c(C)c1Nc1cc(-n2nc(C)cc2C(F)F)ncn1` [Example 538, 6-[5-(difluoromethyl)-3-methyl-1H-pyrazol-1-yl]-N-{3-[4-(difluoromethyl)phenyl]-1-(2-methoxyethyl)-4-methyl-1H-pyrazol-5-yl}pyrimidin-4-amine] registered an IC50 of 0.012 µM. In turn, `Cc1ccc(-c2nn(CC3CC3)c(Nc3cc(-n4nc(C)c(C(F)(F)F)c4C)ncn3)c2C)cn1` [Example 455, N-[1-(cyclopropylmethyl)-4-methyl-3-(6-methylpyridin-3-yl)-1H-pyrazol-5-yl]-6-[3,5-dimethyl-4-(trifluoromethyl)-1H-pyrazol-1-yl]pyrimidin-4-amine] returned an IC50 of 0.165 µM. In turn, `Cc1cc(C)n(-c2cc(Nc3nn(CC4CC4)c(-c4ccc(F)cc4)c3C)ncn2)n1` [Example 169, N-[1-(cyclopropylmethyl)-5-(4-fluorophenyl)-4-methyl-1H-pyrazol-3-yl]-6-(3,5-dimethyl-1H-pyrazol-1-yl)pyrimidin-4-amine] yielded an IC50 of 0.69 µM.

`Cc1c(-c2ccc(F)cc2)nn(C)c1Nc1cc(-n2cc(C(F)(F)F)cn2)ncn1` [Example 427, N-[3-(4-fluorophenyl)-1,4-dimethyl-1H-pyrazol-5-yl]-6-[4-(trifluoromethyl)-1H-pyrazol-1-yl]pyrimidin-4-amine] came in with an IC50 of 0.015 µM. In turn, `CCc1c(-c2ccc(F)cc2)nn(C2CC2)c1Nc1cc(-n2nc(C)c(Cl)c2C)ncn1` [Example 120, 6-(4-chloro-3,5-dimethyl-1H-pyrazol-1-yl)-N-[1-cyclopropyl-4-ethyl-3-(4-fluorophenyl)-1H-pyrazol-5-yl]pyrimidin-4-amine] came in with an IC50 of 1.45 µM. With `Cc1c(-c2ccc(F)cc2)nn(CC2CC2)c1Nc1cc(-n2nc(C)c3ccncc32)ncn1` [Example 204, N-[1-(cyclopropylmethyl)-3-(4-fluorophenyl)-4-methyl-1H-pyrazol-5-yl]-6-(3-methyl-1H-pyrazolo[3,4-c]pyridin-1-yl)pyrimidin-4-amine] the figure was 0.003 µM.
